The source of these data is the supplement of paper PMC11208160.
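For recombinant UMI read abundance after kanamycin selection (control-corrected) in this document: IS621 bridge recombinase in Escherichia coli cells against a fixed T5 target plasmid.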

One data set in a line: recombinant barcode read abundance after kanamycin selection (control-corrected) (log10(CPM+1)); higher = more efficient recombination; sequences stand for … in AGTGCAGAGAAAATCGGCCAGTTTTCTCTGCCTGCAGTCCGCATGCCGT…AGATTTATGCAGCGGACTGCCTTTCTCCCAAAGTGATAAACCGGACAGTATCATGGACCGGTTTTCCCGGTAATCCGTATTTGCAAGGTTGGTTTCACT; site = the 11-nt target. The method, then: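 Pooled E. coli target-specificity screen for the IS621 bridge recombinase. Each library plasmid pairs an 11-nt target (CT core) with a bridge RNA whose target-binding loop (9-nt LTG + 4-nt RTG) is reprogrammed; the rest of the 177-nt WT IS621 bridge RNA scaffold is fixed. The plasmid is co-electroporated with a WT donor plasmid; recombinase is induced with 0.1 mM IPTG and recombinants are selected on kanamycin. Recombinant barcodes are sequenced, converted to CPM, averaged over two biological replicates and corrected by the unselected control CPM. Molecule = full bridge RNA written as DNA: LTG = specificity nt 1-9, RTG = reverse complement of specificity nt 8-11, in the WT scaffold.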
On to “AAACCACCTTGGGTTCTAACCTGTTGCCT (site AAACCACCTAG)”, for which the “recombinant barcode read abundance (log10)” value was determined as 1.49.

Regarding “AAACCACCTTGGGTTCTAACCTGTTGCCT (site ACACCACCTAG)”, the “recombinant barcode read abundance (log10)” value is 0.257.

Regarding “AAACCACCTTGGGTTCTAACCTGTTGCCT (site AGACCACCTAG)”, the “recombinant barcode read abundance (log10)” value turned out to be 0.276.

“AAACCACCTTGGGTTCTAACCTGTTGCCT (site ATACCACCTAG)”: the “recombinant barcode read abundance (log10)” value is 0.861.

Regarding “AAATCCTCTTGGGTTCTAACCTGTTGCCT (site AAATCCTCTAG)”, the “recombinant barcode read abundance (log10)” value came to 1.04.

In the case of “AAATCCTCTTGGGTTCTAACCTGTTGCCT (site CAATCCTCTAG)”, the “recombinant barcode read abundance (log10)” value was determined as 0.475.

Consider “AAATCCTCTTGGGTTCTAACCTGTTGCCT (site GAATCCTCTAG)”, for which the “recombinant barcode read abundance (log10)” value was determined as 0.085.

For “AAATCCTCTTGGGTTCTAACCTGTTGCCT (site TAATCCTCTAG)”, the “recombinant barcode read abundance (log10)” value is 0.409.

With “AAATGACCTTGGGTTCTAACCTGTTGCGT (site AAATGACCTAC)”, the “recombinant barcode read abundance (log10)” value is 2.66.

As to “AAATGACCTTGGGTTCTAACCTGTTGCGT (site GTGCCCGCTCT)”, the “recombinant barcode read abundance (log10)” value turned out to be 0.548.

For the sequence “AAATTGACTTGGGTTCTAACCTGTTGCCT (site AAATTGACTAG)”, the “recombinant barcode read abundance (log10)” value is 0.624.

Turning to “AAATTGACTTGGGTTCTAACCTGTTGCCT (site AACTTGACTAG)”, the “recombinant barcode read abundance (log10)” value was determined as 0.136.

As to “AAATTGACTTGGGTTCTAACCTGTTGCCT (site AAGTTGACTAG)”, the “recombinant barcode read abundance (log10)” value came to 0.0999.

On to “AAATTGACTTGGGTTCTAACCTGTTGCCT (site AATTTGACTAG)”, for which the “recombinant barcode read abundance (log10)” value was found to be 0.0913.

For the sequence “AAATTTCCTTGGGTTCTAACCTGTTGCCT (site AAATTTCCTAG)”, the “recombinant barcode read abundance (log10)” value was 0.42.

As to “AAATTTCCTTGGGTTCTAACCTGTTGCCT (site ACATTTCCTAG)”, the “recombinant barcode read abundance (log10)” value was determined as 0.0879.

As for “AAATTTCCTTGGGTTCTAACCTGTTGCCT (site AGATTTCCTAG)”, the “recombinant barcode read abundance (log10)” value was found to be 0.0553.

Regarding “AAATTTCCTTGGGTTCTAACCTGTTGCCT (site ATATTTCCTAG)”, the “recombinant barcode read abundance (log10)” value turned out to be 0.123.

“AACACGTCTTGGGTTCTAACCTGTTGCCT (site AAATCGTCTAG)”: the “recombinant barcode read abundance (log10)” value came to 0.0544.

As for “AACACGTCTTGGGTTCTAACCTGTTGCCT (site AACACGTCTAG)”, the “recombinant barcode read abundance (log10)” value was found to be 0.576.

For the sequence “AACACTCCTTGGGTTCTAACCTGTTGCTT (site AACACTCCTAA)”, the “recombinant barcode read abundance (log10)” value turned out to be 0.0689.

A further data set can be described thus: recombinant UMI read abundance after kanamycin selection (control-corrected) (log10(CPM+1)); higher = more efficient recombination; extreme values may be limits of the assay; sequences stand for … in AGTGCAGAGAAAATCGGCCAGTTTTCTCTGCCTGCAGTCCGCATGCCGTGGGACCCCTTGGGTTCTAACCTGTTGCCTAGATTTATGCAGCGGACTGCCTTTCTCCCAAAGTGATAAACCGG…AGGTTGGTTTCACT; site = the 11-nt donor. Put shortly:
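After plating on IPTG (0.07 mM) plus kanamycin, or unselected, in two replicates, recombinant UMIs were PCR-amplified across the donor–target junction and sequenced. The cells were Escherichia coli co-electroporated with a UMI-tagged donor and donor-binding-loop pair library and a target plasmid with a fixed target and T7-inducible IS621 bridge recombinase. Values are log10(CPM+1), with CPM averaged over replicates and scaled by control-derived factors.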
As to “TTGTACGCATGGACCGGTTTTCCCGGTAATCCGTATTTGCA (site TTGTACGCTTG)”, the “recombinant UMI read abundance (log10)” value is 1.8.

“TTGTAGGCATGGACCGGTTTTCCCGGTAATCCGTATTTGGC (site ATGTAGGCTGC)”: the “recombinant UMI read abundance (log10)” value came out at 0.

“TTGTAGGCATGGACCGGTTTTCCCGGTAATCCGTATTTGGC (site CTGTAGGCTGC)”: the “recombinant UMI read abundance (log10)” value amounted to 1.59.

For the sequence “TTGTAGGCATGGACCGGTTTTCCCGGTAATCCGTATTTGGC (site GTGTAGGCTGC)”, the “recombinant UMI read abundance (log10)” value worked out at 0.

As to “TTGTAGGCATGGACCGGTTTTCCCGGTAATCCGTATTTGGC (site TTGTAGGCTGC)”, the “recombinant UMI read abundance (log10)” value amounted to 1.76.

On to “TTGTCACCATGGACCGGTTTTCCCGGTAATCCGTATTTGTG (site TTGTCACCTCA)”, for which the “recombinant UMI read abundance (log10)” value came out at 0.0196.

As for “TTGTCGACATGGACCGGTTTTCCCGGTAATCCGTATTTGAC (site TTGTCGACTGT)”, the “recombinant UMI read abundance (log10)” value is 0.302.

Turning to “TTGTGGCCATGGACCGGTTTTCCCGGTAATCCGTATTTGTG (site TTGTGGCCTCA)”, the “recombinant UMI read abundance (log10)” value stood at 0.0156.

Consider “TTGTGTACATGGACCGGTTTTCCCGGTAATCCGTATTTGCA (site TTGTGTACTTG)”, for which the “recombinant UMI read abundance (log10)” value came out at 0.756.

Consider “TTTAATCCATGGACCGGTTTTCCCGGTAATCCGTATTTGAT (site TTTAATCCTAT)”, for which the “recombinant UMI read abundance (log10)” value came out at 0.157.

As to “TTTAGGGCATGGACCGGTTTTCCCGGTAATCCGTATTTGAC (site TTTAGGGCTGT)”, the “recombinant UMI read abundance (log10)” value came out at 1.53.

Turning to “TTTATTTCATGGACCGGTTTTCCCGGTAATCCGTATTTGAG (site TTTATTTCTCT)”, the “recombinant UMI read abundance (log10)” value amounted to 0.00225.

For the sequence “TTTCCGGCATGGACCGGTTTTCCCGGTAATCCGTATTTGTA (site TTTCCGGCTTA)”, the “recombinant UMI read abundance (log10)” value worked out at 0.262.

As to “TTTCGATCATGGACCGGTTTTCCCGGTAATCCGTATTTGGT (site TTTCGATCTAC)”, the “recombinant UMI read abundance (log10)” value came out at 0.00229.

Regarding “TTTCTGCCATGGACCGGTTTTCCCGGTAATCCGTATTTGAA (site TTTCTGCCTTT)”, the “recombinant UMI read abundance (log10)” value turned out to be 0.00894.

As for “TTTCTGCCATGGACCGGTTTTCCCGGTAATCCGTATTTGCG (site TTTCTGCCTCG)”, the “recombinant UMI read abundance (log10)” value was 0.0153.

As to “TTTGAGGCATGGACCGGTTTTCCCGGTAATCCGTATTTGCT (site TTTGAGGCTAG)”, the “recombinant UMI read abundance (log10)” value was found to be 1.31.

As for “TTTGAGGCATGGACCGGTTTTCCCGGTAATCCGTATTTGCT (site TTTGCGGCTAG)”, the “recombinant UMI read abundance (log10)” value was determined as 0.

On to “TTTGAGGCATGGACCGGTTTTCCCGGTAATCCGTATTTGCT (site TTTGGGGCTAG)”, for which the “recombinant UMI read abundance (log10)” value amounted to 0.458.

With “TTTGAGGCATGGACCGGTTTTCCCGGTAATCCGTATTTGCT (site TTTGTGGCTAG)”, the “recombinant UMI read abundance (log10)” value came to 0.0143.

Take “TTTGCGACATGGACCGGTTTTCCCGGTAATCCGTATTTGCT (site TTTGCGACTAG)”: the “recombinant UMI read abundance (log10)” value stood at 0.529.

On to “TTTGCGACATGGACCGGTTTTCCCGGTAATCCGTATTTGCT (site TTTGCGCCTAG)”, for which the “recombinant UMI read abundance (log10)” value is 0.00919.

Take “TTTGCGACATGGACCGGTTTTCCCGGTAATCCGTATTTGCT (site TTTGCGGCTAG)”: the “recombinant UMI read abundance (log10)” value is 0.145.

Turning to “TTTGCGACATGGACCGGTTTTCCCGGTAATCCGTATTTGCT (site TTTGCGTCTAG)”, the “recombinant UMI read abundance (log10)” value came to 0.

With “TTTGCGGCATGGACCGGTTTTCCCGGTAATCCGTATTTGGT (site TTTGCGGCTAA)”, the “recombinant UMI read abundance (log10)” value was 0.0207.

As to “TTTGCGGCATGGACCGGTTTTCCCGGTAATCCGTATTTGGT (site TTTGCGGCTAC)”, the “recombinant UMI read abundance (log10)” value amounted to 0.0146.

Take “TTTGCGGCATGGACCGGTTTTCCCGGTAATCCGTATTTGGT (site TTTGCGGCTAG)”: the “recombinant UMI read abundance (log10)” value amounted to 0.0123.

For the sequence “TTTGCGGCATGGACCGGTTTTCCCGGTAATCCGTATTTGGT (site TTTGCGGCTAT)”, the “recombinant UMI read abundance (log10)” value came to 0.144.

Turning to “TTTGCGGCATGGACCGGTTTTCCCGGTAATCCGTATTTGTT (site TTTGCGGCTAA)”, the “recombinant UMI read abundance (log10)” value was determined as 0.223.

For the sequence “TTTGCGGCATGGACCGGTTTTCCCGGTAATCCGTATTTGTT (site TTTGCGGCTAC)”, the “recombinant UMI read abundance (log10)” value worked out at 0.0157.

As to “TTTGCGGCATGGACCGGTTTTCCCGGTAATCCGTATTTGTT (site TTTGCGGCTAG)”, the “recombinant UMI read abundance (log10)” value came out at 0.0139.

Take “TTTGCGGCATGGACCGGTTTTCCCGGTAATCCGTATTTGTT (site TTTGCGGCTAT)”: the “recombinant UMI read abundance (log10)” value amounted to 0.00523.

For “TTTGCTTCATGGACCGGTTTTCCCGGTAATCCGTATTTGGT (site TTTGCTTCTAC)”, the “recombinant UMI read abundance (log10)” value was determined as 0.00326.

Consider “TTTGTTCCATGGACCGGTTTTCCCGGTAATCCGTATTTGTG (site TTTGTTCCTCA)”, for which the “recombinant UMI read abundance (log10)” value is 0.0191.

For “TTTTCCCCATGGACCGGTTTTCCCGGTAATCCGTATTTGTA (site TATTCCCCTTA)”, the “recombinant UMI read abundance (log10)” value came out at 0.00331.

As for “TTTTCCCCATGGACCGGTTTTCCCGGTAATCCGTATTTGTA (site TCTTCCCCTTA)”, the “recombinant UMI read abundance (log10)” value came to 0.00391.

With “TTTTCCCCATGGACCGGTTTTCCCGGTAATCCGTATTTGTA (site TGTTCCCCTTA)”, the “recombinant UMI read abundance (log10)” value is 0.0253.

In the case of “TTTTCCCCATGGACCGGTTTTCCCGGTAATCCGTATTTGTA (site TTTTCCCCTTA)”, the “recombinant UMI read abundance (log10)” value was 0.0384.

As to “TTTTCGGCATGGACCGGTTTTCCCGGTAATCCGTATTTGCT (site TTTACGGCTAG)”, the “recombinant UMI read abundance (log10)” value worked out at 0.0102.

Turning to “TTTTCGGCATGGACCGGTTTTCCCGGTAATCCGTATTTGCT (site TTTCCGGCTAG)”, the “recombinant UMI read abundance (log10)” value was determined as 0.302.

Take “TTTTCGGCATGGACCGGTTTTCCCGGTAATCCGTATTTGCT (site TTTGCGGCTAG)”: the “recombinant UMI read abundance (log10)” value was 0.00223.

Turning to “TTTTCGGCATGGACCGGTTTTCCCGGTAATCCGTATTTGCT (site TTTTCGGCTAG)”, the “recombinant UMI read abundance (log10)” value amounted to 0.0145.
